Measurements from ChEMBL document CHEMBL4219034, “Synthesis, antimicrobial activity, structure-activity relationship and cytotoxic studies of a new series of functionalized (Z)-3-(2-oxo-2-substituted ethylidene)-3,4-dihydro-2H-benzo[b][1,4]oxazin-2-ones” (Bioorg Med Chem Lett, 2017).
≈ marks a conversion by molar mass, not a printed value. Calls of active or inactive are those of the source. The rule behind the calls is not given here.

Columns and labels:
Fusarium oxysporum [1] = test: Antifungal activity against Fusarium oxysporum ATCC 62506 incubated for 24 hrs by serial dilution method; format: functional
Staphylococcus aureus [2] = test: Antibacterial activity against Staphylococcus aureus MTCC 3381 incubated for 24 hrs by serial dilution method; format: functional
Trichoderma reesei [3] = test: Antifungal activity against Trichoderma reesei ATCC 13631 at 100 ug/ml incubated for 72 hrs by agar disc diffusion assay; format: functional; settings: for zone of inhibition at 100 µg/mL: ATCC 13631, 72 h, read-out: IZ
Streptomyces griseus [4] = test: Antibacterial activity against Streptomyces griseus MTCC 4734 incubated for 24 hrs by serial dilution method; format: functional
Streptomyces griseus [5] = test: Antibacterial activity against Streptomyces griseus MTCC 4734 at 100 ug/ml incubated for 12 hrs by agar disc diffusion assay; format: functional; settings: for zone of inhibition at 100 µg/mL: MTCC 4734, 12 h, read-out: IZ
Talaromyces funiculosus [6] = test: Antifungal activity against Penicillium funiculosum ATCC 11797 at 100 ug/ml incubated for 72 hrs by agar disc diffusion assay; format: functional; settings: for zone of inhibition at 100 µg/mL: ATCC 11797, 72 h, read-out: IZ
Staphylococcus aureus [7] = test: Antibacterial activity against Staphylococcus aureus MTCC 3381 at 100 ug/ml incubated for 12 hrs by agar disc diffusion assay; format: functional; settings: for zone of inhibition at 100 µg/mL: MTCC 3381, 12 h, read-out: IZ
Bacillus subtilis [8] = test: Antibacterial activity against Bacillus subtilis MTCC 10619 at 100 ug/ml incubated for 12 hrs by agar disc diffusion assay; format: functional; settings: for zone of inhibition at 100 µg/mL: MTCC 10619, 12 h, read-out: IZ
Fusarium oxysporum [9] = test: Antifungal activity against Fusarium oxysporum ATCC 62506 at 100 ug/ml incubated for 72 hrs by agar disc diffusion assay; format: functional; settings: for zone of inhibition at 100 µg/mL: ATCC 62506, 72 h, read-out: IZ
Aspergillus niger [10] = test: Antifungal activity against Aspergillus niger ATCC 9029 at 100 ug/ml incubated for 72 hrs by agar disc diffusion assay; format: functional; settings: for zone of inhibition at 100 µg/mL: ATCC 9029, 72 h, read-out: IZ
[11] = Cytotoxicity against mouse NIH/3T3 cells assessed as cell viability at 100 ug/ml after 72 hrs by MTT assay relative to control; format: cell-based, NIH3T3; settings: read-out: Activity
Aspergillus niger [12] = test: Antifungal activity against Aspergillus niger ATCC 9029 incubated for 24 hrs by serial dilution method; format: functional
Trichoderma reesei [13] = test: Antifungal activity against Trichoderma reesei ATCC 13631 incubated for 24 hrs by serial dilution method; format: functional
Bacillus subtilis [14] = test: Antibacterial activity against Bacillus subtilis MTCC 10619 incubated for 24 hrs by serial dilution method; format: functional
[15] = Cytotoxicity against mouse NIH/3T3 cells assessed as cell viability at 250 ug/ml after 72 hrs by MTT assay relative to control; format: cell-based, NIH3T3; settings: read-out: Activity
Talaromyces funiculosus [16] = test: Antifungal activity against Penicillium funiculosum ATCC 11797 incubated for 24 hrs by serial dilution method; format: functional
Escherichia coli [17] = test: Antibacterial activity against Escherichia coli MTCC 443 at 100 ug/ml incubated for 12 hrs by agar disc diffusion assay; format: functional; settings: for zone of inhibition at 100 µg/mL: MTCC 443, 12 h, read-out: IZ
Escherichia coli [18] = test: Antibacterial activity against Escherichia coli MTCC 443 incubated for 24 hrs by serial dilution method; format: functional
[19] = Cytotoxicity against mouse NIH/3T3 cells assessed as cell viability at 25 ug/ml after 72 hrs by MTT assay relative to control; format: cell-based, NIH3T3; settings: read-out: Activity
[20] = Cytotoxicity against mouse NIH/3T3 cells assessed as cell viability at 50 ug/ml after 72 hrs by MTT assay relative to control; format: cell-based, NIH3T3; settings: read-out: Activity

Row | SMILES | MIC (Fusarium oxysporum [1]; ATCC 62506, 24 h) | MIC (Streptomyces griseus [4]) | inhibition zone (IZ) (Streptomyces griseus [5]) | inhibition zone (IZ) (Bacillus subtilis [8]) | zone of inhibition at 100 µg/mL (Fusarium oxysporum [9]) | inhibition zone (IZ) (Aspergillus niger [10]) | MIC (Aspergillus niger [12]) | MIC (Bacillus subtilis [14]) | zone of inhibition at 100 µg/mL (Escherichia coli [17]) | MIC (Escherichia coli [18]; MTCC 443, 24 h) | MIC (Staphylococcus aureus [2]) | inhibition zone (IZ) (Trichoderma reesei [3]) | inhibition zone (IZ) (Talaromyces funiculosus [6]) | inhibition zone (IZ) (Staphylococcus aureus [7]) | MIC (Trichoderma reesei [13]) | MIC (Talaromyces funiculosus [16]) | MIC (Fusarium oxysporum [1]) | inhibition zone (IZ) (Fusarium oxysporum [9]) | inhibition zone (IZ) (Escherichia coli [17]) | MIC (Escherichia coli [18]) | other results
1 | O=C1Oc2cc([N+](=O)[O-])ccc2N/C1=C\C(=O)c1cccc2ccccc12 | 25 µg/mL (≈ 69.4 µM) | inactive | inactive | inactive | 18 mm | inactive | inactive | inactive | 26 mm | 12.5 µg/mL (≈ 34.7 µM) | – | – | – | – | – | – | – | – | – | – | MIC (Staphylococcus aureus [2]; MTCC 3381, 24 h): 100 µg/mL (≈ 278 µM); zone of inhibition at 100 µg/mL (Trichoderma reesei [3]): 18 mm; zone of inhibition at 100 µg/mL (Talaromyces funiculosus [6]): 20 mm; zone of inhibition at 100 µg/mL (Staphylococcus aureus [7]): 8 mm; viability at 72 h, 100 ug/ml [11]: 83%; MIC (Trichoderma reesei [13]; ATCC 13631, 24 h): 25 µg/mL (≈ 69.4 µM); viability at 72 h, 250 ug/ml [15]: 76.3%; MIC (Talaromyces funiculosus [16]; ATCC 11797, 24 h): 25 µg/mL (≈ 69.4 µM); viability at 72 h, 25 ug/ml [19]: 93.5%; viability at 72 h, 50 ug/ml [20]: 88.9%
2 | O=C1Oc2cc([N+](=O)[O-])ccc2N/C1=C\C(=O)c1ccc(-c2ccccc2)cc1 | 25 µg/mL (≈ 64.7 µM) | – | – | – | 18 mm | inactive | inactive | – | 12 mm | 25 µg/mL (≈ 64.7 µM) | inactive | inactive | inactive | inactive | inactive | inactive | – | – | – | – | MIC (Streptomyces griseus [4]; MTCC 4734, 24 h): 50 µg/mL (≈ 129 µM); zone of inhibition at 100 µg/mL (Streptomyces griseus [5]): 10 mm; zone of inhibition at 100 µg/mL (Bacillus subtilis [8]): 8 mm; MIC (Bacillus subtilis [14]; MTCC 10619, 24 h): 100 µg/mL (≈ 259 µM)
3 | Cc1ccc2c(c1)N/C(=C\C(=O)c1cccc3ccccc13)C(=O)O2 | – | inactive | inactive | inactive | – | inactive | inactive | inactive | – | – | inactive | inactive | inactive | inactive | inactive | inactive | inactive | inactive | inactive | inactive | –
4 | O=C1Oc2ccccc2N/C1=C\C(=O)c1ccc(-c2ccccc2)cc1 | – | inactive | inactive | inactive | – | – | – | inactive | 14 mm | 25 µg/mL (≈ 73.2 µM) | inactive | inactive | – | inactive | inactive | – | inactive | inactive | – | – | zone of inhibition at 100 µg/mL (Talaromyces funiculosus [6]): 14 mm; zone of inhibition at 100 µg/mL (Aspergillus niger [10]): 4 mm; MIC (Aspergillus niger [12]; ATCC 9029, 24 h): 100 µg/mL (≈ 293 µM); MIC (Talaromyces funiculosus [16]; ATCC 11797, 24 h): 25 µg/mL (≈ 73.2 µM)
5 | O=C1Oc2ccccc2N/C1=C\C(=O)C1CC1 | 100 µg/mL (≈ 436 µM) | inactive | inactive | inactive | 8 mm | inactive | inactive | inactive | 10 mm | 50 µg/mL (≈ 218 µM) | – | – | inactive | – | – | inactive | – | – | – | – | MIC (Staphylococcus aureus [2]; MTCC 3381, 24 h): 100 µg/mL (≈ 436 µM); zone of inhibition at 100 µg/mL (Trichoderma reesei [3]): 4 mm; zone of inhibition at 100 µg/mL (Staphylococcus aureus [7]): 4 mm; MIC (Trichoderma reesei [13]; ATCC 13631, 24 h): 100 µg/mL (≈ 436 µM)
6 | Cc1ccc2c(c1)N/C(=C\C(=O)c1ccc(-c3ccccc3)cc1)C(=O)O2 | – | – | – | – | – | inactive | inactive | – | 20 mm | 25 µg/mL (≈ 70.3 µM) | – | inactive | inactive | – | inactive | inactive | inactive | inactive | – | – | MIC (Staphylococcus aureus [2]; MTCC 3381, 24 h): 12.5 µg/mL (≈ 35.2 µM); MIC (Streptomyces griseus [4]; MTCC 4734, 24 h): 12.5 µg/mL (≈ 35.2 µM); zone of inhibition at 100 µg/mL (Streptomyces griseus [5]): 18 mm; zone of inhibition at 100 µg/mL (Staphylococcus aureus [7]): 11 mm; zone of inhibition at 100 µg/mL (Bacillus subtilis [8]): 12 mm; MIC (Bacillus subtilis [14]; MTCC 10619, 24 h): 25 µg/mL (≈ 70.3 µM)
7 | O=C1Oc2ccc(Cl)cc2N/C1=C\C(=O)c1cccc2ccccc12 | – | inactive | inactive | inactive | – | inactive | inactive | inactive | – | – | inactive | inactive | inactive | inactive | inactive | inactive | inactive | inactive | inactive | inactive | –
8 | Cc1ccc2c(c1)N/C(=C\C(=O)c1ccc(C3CCCCC3)cc1)C(=O)O2 | 50 µg/mL (≈ 138 µM) | inactive | inactive | inactive | 12 mm | inactive | – | inactive | – | – | inactive | inactive | inactive | inactive | inactive | inactive | – | – | inactive | inactive | MIC (Aspergillus niger [12]; ATCC 9029, 24 h): 100 µg/mL (≈ 277 µM)
9 | O=C1Oc2ccccc2N/C1=C\C(=O)c1cccc2ccccc12 | – | inactive | inactive | inactive | – | – | – | inactive | – | – | inactive | – | inactive | inactive | – | inactive | inactive | inactive | inactive | inactive | zone of inhibition at 100 µg/mL (Trichoderma reesei [3]): 4 mm; zone of inhibition at 100 µg/mL (Aspergillus niger [10]): 4 mm; MIC (Aspergillus niger [12]; ATCC 9029, 24 h): 100 µg/mL (≈ 317 µM); MIC (Trichoderma reesei [13]; ATCC 13631, 24 h): 100 µg/mL (≈ 317 µM)
10 | O=C1Oc2ccc([N+](=O)[O-])cc2N/C1=C\C(=O)c1cccc2ccccc12 | 50 µg/mL (≈ 139 µM) | – | – | – | 10 mm | inactive | inactive | – | 10 mm | 100 µg/mL (≈ 278 µM) | inactive | inactive | inactive | inactive | inactive | inactive | – | – | – | – | MIC (Streptomyces griseus [4]; MTCC 4734, 24 h): 100 µg/mL (≈ 278 µM); zone of inhibition at 100 µg/mL (Streptomyces griseus [5]): 4 mm; zone of inhibition at 100 µg/mL (Bacillus subtilis [8]): 4 mm; MIC (Bacillus subtilis [14]; MTCC 10619, 24 h): 100 µg/mL (≈ 278 µM)
